Reference: patent publication US20150119352A1, “DINUCELOSIDE POLYPHOSPHATES FOR THE TREATMENT OF PAIN” (GlobalAcorn Ltd., priority 2012, published 2015)

Key:
[1] = test system: rats with Partial Sciatic Nerve Ligation (PSNL); experiment: Partial Sciatic Nerve Ligation (PSNL) thermal hyperalgesia test; format: in vivo, rat; details: 50 μM
Experimental: FIG. 9. […] Time-course of the effects of 50 μM (100 μL) of AppCH2ppA on PWL.
PSNL, with tight ligation of 33-50% of the sciatic nerve trunk, is a neuropathic pain model. We sub-cutaneously injected 50 μM of AppCH2ppA ([…]) on thermal hyperalgesia in rats with PSNL. […] Results are expressed as mean+/−S.E.M. In this model, the antinociceptive effect is 62%.

[2] = target: T1, native P2X3 receptors, dorsal root ganglia (DRG) neurons (Rattus norvegicus, UniProt P49654); experiment: α,β-meATP-induced currents in cultured dorsal root ganglia neurons; format: cell-based; details: DRG neuron, read-out: inhibition (suppression) of the peak current
T1 construct: Modulation of Native P2X3 Receptors in Rat Cultured Sensory Neurons; endogenous in cells; host or cells: primary cultured rat trigeminal ganglion and dorsal root ganglion neurons
T1 sequence (P49654 1-397): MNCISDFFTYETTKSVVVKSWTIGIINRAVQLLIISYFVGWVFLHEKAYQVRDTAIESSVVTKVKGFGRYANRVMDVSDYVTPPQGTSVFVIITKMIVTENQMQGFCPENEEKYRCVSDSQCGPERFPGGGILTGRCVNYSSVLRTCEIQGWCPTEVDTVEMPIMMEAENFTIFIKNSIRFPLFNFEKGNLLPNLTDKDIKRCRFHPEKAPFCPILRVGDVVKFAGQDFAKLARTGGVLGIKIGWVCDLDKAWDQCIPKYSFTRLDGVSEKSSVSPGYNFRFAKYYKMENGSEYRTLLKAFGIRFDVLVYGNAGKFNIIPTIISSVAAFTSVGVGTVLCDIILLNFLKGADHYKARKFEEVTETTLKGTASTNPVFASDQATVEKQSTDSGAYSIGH
Experimental: (§1) Rat trigeminal (TG), nodose (NG) or dorsal root ganglion (DRG) neurons in culture were prepared as described previously (Sokolova et al., 2001; Simonetti et al., 2006). Neurons were plated on poly-L-lysine (0.2 mg/mL)-coated Petri dishes and cultured for 1 to 2 days under an atmosphere containing 5% CO2. Cells were used within 2 days of plating when they lacked processes. HEK293T cells were prepared as reported previously (Fabbretti et al., 2004; Sokolova et al., 2004) and transfected with rat full-length P2X3 cDNA subcloned into pIRES2-EGFP (Clontech, Mountain View, Calif., USA).
(§2) Trigeminal, nodose, DRG neurons or HEK cells were recorded in the whole-cell configuration while being continuously superfused (at 2 mL/min) with control solution containing (in mM): 152 NaCl, 5 KCl, 1 MgCl2, 2 CaCl2, 10 glucose, and 10 HEPES; pH was adjusted to 7.4 with NaOH and osmolarity was adjusted to 320 mOsM with glucose. […] Responses to selective P2X3 receptor agonist α,β-methylene-ATP (α,β-meATP; resistant to ectoATPase hydrolysis, Sigma-Aldrich) were measured using an EPC-9 amplifier and HEKA Patch Master software (HEKA Electronik, Germany). Cells were voltage-clamped at −70 mV. In most cells, series resistance was compensated by 80%. […]
(§3) The peak amplitudes of the responses were measured using HEKA Patch Master software. […]

[3] = test system: native P2X3 receptors, dorsal root ganglia (DRG) neurons; experiment: as above; format: cell-based, rat; details: 1 μM, DRG neurons
Experimental: as §1, §2, §3

Row | Compound | effect on thermal hyperalgesia (PWL) ([1]; 100 μL, subcutaneous) | antinociceptive effect ([1]; sub-cutaneous, thermal hyperalgesia, PWL) [%] | inhibition at 1 µM [2] [%] | inhibition of sustained residual component [3] [%]
1 | Nc1ncnc2c1ncn2[C@@H]1O[C@H](COP(=O)(O)OP(=O)(O)CP(=O)(O)OP(=O)(O)OC[C@H]2O[C@@H](n3cnc4c(N)ncnc43)C(O)C2O)C(O)C1O (stereo in doubt) [AppCH2ppA] | reduced thermal hyperalgesia | 62 | – | –
2 | Nc1ncnc2c1ncn2[C@@H]1O[C@H](COP(=O)(O)OP(=O)(O)NP(=O)(O)OP(=O)(O)OC[C@H]2O[C@@H](n3cnc4c(N)ncnc43)C(O)C2O)C(O)C1O (stereo in doubt) [AppNHppA] | – | – | 79.2 ± 5.6 | 18±6
